In publication PMC9530166, “Allosteric regulation of glycogen breakdown by the second messenger cyclic di-GMP” (Nature Communications, 2022):

Tested on: GlgXE47A-R49A
Assay: Fluorescence polarization binding, GlgXE47A-R49A
Design: species or system Streptomyces venezuelae
From the text: Fig. 5 Structure of the S. venezuelae GlgX-c-di-GMP complex. a Ribbon diagram of the S. venezuelae GlgX-c-di-GMP complex with one GlgX subunit colored cyan and the other salmon. Shown as sticks are the c-di-GMP molecules bound at each end of the antiparallel dimer. […] There was clear density for each c-di-GMP molecule. b Close up of the GlgX-c-di-GMP binding interaction. Key residues mediating contacts to the c-di-GMP are shown as sticks and labeled. Hydrogen bonds from GlgX residues that specify binding to the guanine are indicated by yellow dashed lines. c Fluorescence polarization (FP) binding isotherm showing interaction of GlgX, GlgXE47A-R49A and GlgXR438A-R579A for F-c-di-GMP in red, green and blue respectively. Also shown is the binding isotherm for GlgX binding to F-c-di-AMP in black. […] The y-axis and x-axis are millipolarization (mP) units and GlgX concentration (μM), respectively. Shown are representative binding curves for each. The experiments were performed in technical triplicates and the error between measurements reported. […]
Thus, we used this F-tagged c-di-GMP in fluorescence polarization (FP) studies to quantify the interaction between GlgX and c-di-GMP. […] To ensure that the presence of the fluorescent tag was not impacting the GlgX interaction with c-di-GMP we used microscale thermophoresis (MST) to quantify c-di-GMP binding to GlgX. […]

Nc1nc2c(ncn2[C@@H]2O[C@@H]3CO[P@](=O)(O)O[C@H]4[C@@H](O)[C@H](n5cnc6c(=O)[nH]c(N)nc65)O[C@@H]4CO[P@](=O)(O)O[C@H]3[C@H]2O)c(=O)[nH]1 [c-di-GMP, bis-(3′−5′)-cyclic diguanosine monophosphate]
binding to mutant in FP: weak, nonsaturable binding
